In patent US7557144B1, “Modulation of protein expression using carbocyclic aryl alkenoic acid derivatives” (The Johns Hopkins University, priority 2000, dated 2009):

Key:
Assay type in all cases: cell-based, human
Hsc70 [1] = assay: Hsc70 immunoblot in primary CF bronchial epithelial cells
Procedure: Shown in FIG. 11 is an experiment in which cells were exposed to control or test conditions or study drug for 48 hrs and then analyzed by immunoblotting for Hsc70, a 70 kD heat shock chaperone protein. […] Hsc70 is not as dramatically down regulated by growth at 27° C.
Shown in FIG. 12 is an experiment performed along lines as shown in FIG. 10A in the same primary cell line. Hsc70 under control conditions is strongly visible in lane 6. Study drug at 1 μM or higher, and low temperature, are associated with more than 50% reduction in Hsc70.

ΔF508-CFTR [2] = assay: CFTR bands B and C in primary cystic fibrosis bronchial epithelial cells; conditions: primary CF bronchial epithelial cells, 48 hr
Procedure: Shown in FIGS. 10A and 10B are results of CF bronchial epithelial cells were harvested from the discarded lungs of a CF patient who underwent therapeutic lung transplant. The genotype is homozygous ΔF508. The methods are as described above. Control cells grown in standard conditions for 0 or 48 hrs are in lanes 6 and 7. Bands B and C are barely detectable. […] The test compound in doses from 1 μM to 1 mM for 48 hr is shown in decreasing order in lanes 2-5.

ΔF508-CFTR [3] = assay: CFTR immunoprecipitation and phosphorylation in IB3-1 cells (bands B and C)
Procedure: CFTR was immunoprecipitated and phosphorylated as described in the Methods. […] Band B CFTR is barely visible consistent with low level ΔF508 expression. The positive control condition, untreated cells grown at 28° C., is in lane 7. Band C has been induced and Band B is relatively depleted consistent with an effect of low temperature on protein trafficking. […] This is consistent with an effect on protein production and on protein trafficking.
Shown in FIGS. 9A and 9B are independent experiments performed as described above. Now the control cells are analyzed in lane 5. Lanes 1-4 show decreasing concentrations of the test compound.
CFTR was detected by immunoprecipitation and phosphorylation. Control cells at 0 and 32 hrs have barely visible CFTR bands B and C. Exposure to low temperature induces band C. 1 mM 4-phenyl-Δ3-transbutenoic acid begins to induce band C and 4 hr and appears maximal by 16 hrs.

ΔF508-CFTR/Hsc70 complex = assay: Immunoprecipitation of Hsc70 and coimmunoprecipitation of CFTR from treated IB3-1 cells; conditions: 2 days, butyrate 1 mM, glycerol 1 M, phenylacetate 1 mM, G418 0.2 mg/ml
Hsp40 = Hsp40 immunoblot of IB3-1 lysates; conditions: IB3-1 cells, 37° C., 2 days; butyrate 1 mM, glycerol 1 M, phenylacetate 1 mM, G418 0.2 mg/ml
Procedure: (§1) 3. Immunoblot analysis. Whole cell lysates were prepared by solubilization with 2% SDS at 95° C. Protein concentration in the lysates was determined using the Bio-Rad DC assay reagents with bovine plasma g-globulin as a standard (Bio-Rad Laboratories, Hercules, Calif.). Equal amounts of protein was resolved on 5, 7, 8, or 9% SDS-polyacrylamide gels. Proteins were transferred to nitrocellulose, and immunodetection was performed as previously described (25). Nonspecific binding was blocked by incubation of the nitrocellulose with 2% gelatin or 10% nonfat day milk. Primary antisera and secondary antibodies were applied in buffer containing 0.4% BSA overnight at 4° C. and for 1 h at room temperature, respectively. Detection of immunoreactivity was performed with the enhanced chemiluminescence reagent (ECL, Amer-sham) and fluorography. Recombinant bovine Hsc70 ([…]) was purchased from Stressgen Biotechnologies for use in constructing a standard curve of Hsc70 immunoreactivity. Immunoblots containing the bovine Hsc70 were probed with the Hsc70-specific polyclonal antiserum.
(§2) Whether 4-PBA would regulate expression of a number of other molecular chaperones in IB3-1 cells (FIG. 2) was assessed next. […] Hsp90 is required for correct folding and function of a number of cellular proteins (16). […] Hsp70 (Hsp72) expression is induced by heat shock and the presence of denatured proteins within the eukaryotic cell (16). In Escherichia coli, the Hsp70 homologue DnaK and the Hsp40 homologue DnaJ act to promote protein folding (16). Hdj2 is the member of the Hsp40 family that specifically interacts with and regulates the ATPase activity of Hsc70. Hdj2 also interacts with CFTR during CFTR translation (26).
(§3) FIGS. 2A-2E are more specifically explained as follows. […]
(§4) FIGS. 5A-C are explained in more detail as follows. […] Cellular homogenates were prepared in 2% SDS as described in METHODS, and 5 μg of total cellular protein were analyzed by immunoblot for Hsc70 using rabbit polyclonal antiserum, Hsp90, Hsp70, Hsp40 as described above under General Comments. […]

Hsp70 = Hsp70 immunoblot of IB3-1 lysates; conditions: IB3-1 cells, 37° C., 2 days; butyrate 1 mM, glycerol 1 M, phenylacetate 1 mM, G418 0.2 mg/ml
Procedure: as §1, §2
FIGS. 2A-2E are more specifically explained as follows. […] IB3-1 cells were treated as described for FIG. 1. Immunoblotting with 5 μg of IB3-1 SDS lysate protein was performed as described in the foregoing General Comments.
FIGS. 5A-C are explained in more detail as follows. […] A: IB3-1 cells were incubated at 37° C. for 2 days under indicated conditions. Cellular homogenates were prepared in 2% SDS as described in METHODS, and 5 μg of total cellular protein were analyzed by immunoblot for Hsc70 using rabbit polyclonal antiserum, Hsp90, Hsp70, Hsp40 as described above under General Comments. Con, control. B and C: densitometric analysis of Hsc70 expression (B) and Hsp90, Hsp70, and Hsp40 expression (C) was performed as described for FIG. 1. B: means 6 SE of density in 4 independent experiments.

Hsp90 = Hsp90 immunoblot of IB3-1 lysates; conditions: IB3-1 cells, 37° C., 2 days; butyrate 1 mM, glycerol 1 M, phenylacetate 1 mM, G418 0.2 mg/ml
Procedure: as §1, §2, §3, §4

Hsc70 [4] = assay: Hsc70 immunoblot of IB3-1 whole cell lysates; conditions: IB3-1 cells, 37° C., 2 days; butyrate 1 mM, glycerol 1 M, phenylacetate 1 mM, G418 0.2 mg/ml
Procedure: as §1

Hsc70 mRNA = assay: RNase protection assay of Hsc70 mRNA in IB3-1 cells; conditions: 2 days, 1 mM butyrate, 1 M glycerol
From the text: 4. RNase protection. An Hsc70-specific probe for RNase protec-tion was constructed by isolation a 500-bp EcoR I fragment from American Type Culture Collection (ATCC) plasmid 77659 (ATCC, Manassas, Va.) and ligating this fragment into the EcoR I site of pSK(2) (Bluescript, Stratagene, La Jolla, Calif.). The resulting plasmid was sequenced in the Genetics Core Facility at the Johns Hopkins Hospital and found to be identical to sequences in exons 8 and 9 of the human Hsc70 sequence, with sequencing using the T3 primer and T7 primer leading to sense and antisense sequence, respectively. Hybridization probes were synthesized using a Maxiscript T7 kit (Ambion, Austin, Tex.) and [α^32 P]UTP (Amersham or DuPont NEN, Boston, Mass.) according to the Maxiscript protocol. Templates for internal control hybridizations, pTRI-18S and pTRI-cyclophilin A, were purchased from Ambion, and probes were similarly synthesized using the Maxiscript T7 kit. Probes were isolated by acid phenol-chloroform (Ambion) extraction, separated from unincorporated nucleotide by gel filtration (Sephadex G25 RNAspin column, Boehringer-Mannheim), and ethanol-acetate precipitated before resuspension in hybridization buffer. The concentration of radioactivity in the synthesized probes was determined by liquid scintillation.
RNase protection experiments were performed using the Direct Protect RNase protection assay kit (Ambion) according to the manufacturer's protocol. IB3-1 cell lysates were pre-pared in Direct Protect lysis buffer according to the manufacturer's protocol after incubation under the appropriate conditions for 48 h. Probe (50-70 and 5-10 thousands of counts/min for Hsc70 and control, respectively) and cellular RNA were hybridized overnight at 37° C. and digested with RNase cocktail. Protected fragments were resolved by electrophoresis on 5% acrylamide-8 M urea gels and detected by fluorography. Hsc70 mRNA concentration is expressed relative to control (18S or cyclophilin A) hybridization by densitometry (see Densitometric analysis). Results for hybridization of Hsc70 mRNA relative to the two control species were similar and were therefore grouped for data analysis.
FIGS. 3A-B are explained in more detailed as follows. Dose-dependent downregulation of Hsc70 mRNA expression by 4-PBA. A: IB3-1 cells were treated as for FIGS. 1 and 2. Hsc70 mRNA and 18S rRNA (as an internal reference) were measured by Direct Protect RNase protection as described under General Comments. […] P values (shown above respective error bars) were determined by 1-way ANOVA in comparison with control.
FIG. 6 is explained in more detail as follows. […] P values (shown above respective error bars) were determined by 1-way ANOVA in comparison with control.

[5] = IB3-1 cells, 1 μM to 100 μM, 48 hr (FIG. 8)

Compound	amount of immunoreactive CFTR coprecipitated with Hsc70 (ΔF508-CFTR/Hsc70 complex)	Hsp40 immunoreactivity (Hsp40)	Hsp70 immunoreactivity (Hsp70)	Hsp90 immunoreactivity (Hsp90)	Hsc70 immunoreactivity (Hsc70 [4])	reduction in steady-state Hsc70 mRNA levels (Hsc70 mRNA)	other results
O=C(O)CC=Cc1ccccc1 [4-phenyl-Δ3-transbutenoic acid]	–	–	–	–	–	–	reduction in Hsc70 (Hsc70 [1]; 1 μM or higher (FIG. 12)): more than 50%; reduction in Hsc70 (Hsc70 [1]; 100 μM and 1 mM, 48 hrs, semi-quantitative blot (FIG. 11)): ≥ 50%; concentration giving maximum induction of bands B and C (ΔF508-CFTR [2]; doses 1 μM to 1 mM): 1 mM; induction of CFTR bands B and C (ΔF508-CFTR [2]; homozygous ΔF508, 1 μM): dramatic induction of bands B and C; Band B and total CFTR (ΔF508-CFTR [3]; [5]): induction; induction of Band C CFTR (ΔF508-CFTR [3]; [5]): dose-dependent induction of Band C; time at which induction of band C begins (ΔF508-CFTR [3]; IB3-1 cells, 1 mM): 4 h; time by which induction of band C appears maximal (ΔF508-CFTR [3]; IB3-1 cells, 1 mM): ≤ 16 h; induction of CFTR bands B and C (ΔF508-CFTR [3]; IB3-1 cells, independent experiments (FIGS. 9A and 9B)): dose-dependent induction of bands B and C; effectiveness compared with 4-PBA (ΔF508-CFTR [3]; data of Examples 4-12): much more effective at lower concentrations
O=C(O)Cc1ccccc1 [Phenylacetate, phenylacetic acid]	little effect	not affected	not affected	little effect	little effect	–	–
CCCC(=O)O [butyrate, butyric acid]	–	–	–	–	–	~50%	–
OCC(O)CO [glycerol]	decreases	not change	not change	not change	reduction	~50%	–
